Experimental data as given in patent US8629171B2, “Crystalline form of methyl ((1S)-1-((25)-2-(5-(4'-(2-((25)-1((2S)-2-((methoxycarbonyl)amino)-3-methylbutanoyl)-2-pyrrolidinyl)-1H-imidazol-2-yl)-1-pyrrolidinyl)carbonyl)-2-methylpropyl)carbamate dihydrochloride salt” (Bristol-Myers Squibb Company, priority 2007, dated 2014).
Structures can show the parent of a compound that is named as a salt.

Assay: aqueous solubility
Format: physicochemical
Conditions: crystalline Form N-2 of the dihydrochloride salt

## COC(=O)N[C@H](C(=O)N1CCC[C@H]1c1nc(-c2ccc(-c3ccc(-c4c[nH]c([C@@H]5CCCN5C(=O)[C@@H](NC(=O)OC)C(C)C)n4)cc3)cc2)c[nH]1)C(C)C [Compound (I), methyl ((1S)-1-(((2S)-2-(5-(4′-(2-((2S)-1-((2S)-2-((methoxycarbonyl)amino)-3-methylbutanoyl-2-pyrrolidinyl)-1H-imidazol-5-yl)-4-biphenylyl)-1H-imidazol-2-yl)-1-pyrrolidinyl)carbonyl)-2-methylpropyl)carbamatedihydrochloride salt]
  aqueous solubility: high
